# Assay results from patent publication US20100233158A1, “INDUCTION OF IMMUNE TOLERANCE” (Genzyme Corporation, priority 2002, published 2010).
# Tested on: cardiac allograft rejection
# Experiment: Heart transplant rejection mouse model (C57/BL6 heart into Balb/c recipient, total MHC mismatch)
# Format: in vivo, mice
# Conditions: Compound 1 alone, 75 mg/kg/day for fourteen days following surgery; untreated controls rejected after ten days; p<0.001
# Description: The ability of a combination therapy of rapamycin and Compound 1 to inhibit transplant rejection in a mouse model was tested. […] Following surgery, the mice were divided into the following treatment groups: • Group I is a control group that was untreated. • Group II was treated with Compound 1 at a dose of 75 mg/kg/day subcutaneously for fourteen days following surgery. • Group III was treated with rapamycin at a dose of 0.3 mg/kg/day intraperitoneally for three days following surgery. • Group IV was treated with Compound 1 at a dose of 75 mg/kg/day intraperitoneally for fourteen days following surgery and with rapamycin at a dose of 0.3 mg/kg/day intraperitoneally for three days following surgery.
structure (smiles),measurement,value
N#Cc1cccc(C(C(=O)NCC(c2ccccc2)c2ccccc2)N(CCc2c[nH]cn2)C(=O)c2ccccc2C(=O)c2ccccc2)c1 (stereo not shown) [Compound 1],delay in the onset of rejection,two to three
